Common to all, as to type: functional, cell-based
The test system of experiment [1] is Vero. Nature of the experiment: Antiviral activity was evaluated by the plaque reduction method against Herpes virus 2 (HSV-2) in Vero cells. The settings on record: Chlorocebus sabaeus. (In a plaque reduction assay, fewer plaques than in the control indicate reduced infectivity or spread.)
The subject of experiment [2] is PEU. In words: Compound was tested for its overt cytotoxicity in virus free PEU cell culture. The following applies: Homo sapiens.
The test system of experiment [3] is Vero. Nature of the experiment: Antiviral activity was evaluated by the plaque reduction method against Herpes virus 1 (HSV-1) in Vero cells. The settings on record: Chlorocebus sabaeus.
The subject of experiment [4] is PEU. Nature of the experiment: Antiviral activity was evaluated by the plaque reduction method against Cytomegalovirus (CMV) in PEU cells. The settings on record: Homo sapiens.

This is an account of results in ChEMBL document CHEMBL1128066, “Synthesis and antiviral activity of dihydroxycyclohexyl pyrimidine and purine carbocyclic nucleosides” (Bioorg Med Chem Lett, 1995).

Each structure is given as a SMILES string. Some results are limits rather than exact numbers.

For the molecule `Nc1ncnc2c1ncn2C1CCC(O)CC1O` (configuration not stated), the figures for the EC50 in experiment [1], in experiment [3] and in experiment [4] were 30 µM, 28.5 µM and 200 µM, respectively. Also, in experiment [2], the IC50 – broadly, the concentration that gives 50% inhibition – is over 250 µM.
With `O=c1ccn([C@@H]2CC[C@H](OCc3ccccc3)C[C@H]2O)c(=O)[nH]1`, the results for the EC50 in experiment [1], in experiment [3] and in experiment [4] were 158 µM, 158 µM and 10 µM, respectively. The molecule also showed an IC50 in experiment [2] of over 250 µM.
Consider `O=c1ccn(C2CC(O)CCC2O)c(=O)[nH]1` (configuration not stated), for which the EC50 (as a rule, the concentration needed to bring the measured effect to its halfway point) was determined as 0.97 µM in experiment [1], 10 µM in experiment [3] and 0.97 µM in experiment [4]. Further, the IC50 in experiment [2] was over 250 µM.
For `O=c1ccn(C2CCC(O)CC2O)c(=O)[nH]1` (configuration not stated), the EC50 in experiment [1] stood at 0.97 µM; in experiment [3], 0.97 µM; in experiment [4], 10 µM. Besides, the IC50 in experiment [2] was over 250 µM.
As to `Nc1nc(O)c2ncn(C3CCC(O)CC3O)c2n1` (configuration not stated), the EC50 in experiment [1], in experiment [3] and in experiment [4] was 188 µM in each case. Further, the IC50 in experiment [2] is over 250 µM.
In the case of `Nc1nc(O)c2ncn(C3CCC(OCc4ccccc4)CC3O)c2n1` (configuration not stated), the figures for the EC50 in experiment [1], in experiment [3] and in experiment [4] were 22.1 µM, 21.2 µM and 140 µM, respectively. The same molecule registered an IC50 in experiment [2] of over 250 µM.
Turning to `Nc1ncnc2c1ncn2C1CCC(OCc2ccccc2)CC1O` (configuration not stated), the EC50 in experiment [1] was found to be 16.2 µM; in experiment [3], 16.8 µM; in experiment [4], 147 µM. The IC50 in experiment [2] is over 250 µM.
On the same counts, the results for `O=c1ccn([C@@H]2C[C@@H](OCc3ccccc3)CC[C@H]2O)c(=O)[nH]1` are 10 µM, 10 µM, 10 µM and over 250 µM.
